Reference: ChEMBL document CHEMBL4680222, “Sensitive fluorogenic substrates for sirtuin deacylase inhibitor discovery” (Eur J Med Chem, 2020)
*1 amine or outer side, *2 acyl side, *3 side chain or, on linkers, in order; H or OH if unused. Where a SMILES comes first, the peptide text is derived from it. The star is where a group is joined. AMC = Cc1cc(=O)oc2cc(N*)ccc12; Suc = O=C(CCC(=O)[*:2])[*:1]; Decanoyl = CCCCCCCCCC(=O)*

What was measured:
[1] = molecular target: NAD-dependent protein deacylase sirtuin-5, mitochondrial (Homo sapiens) (UniProt Q9NXA8); test: Substrate activity at human N-terminal His-tagged SIRT5 (34 to 302 residues) expressed in Escherichia coli at 50 uM measured after 2 hrs in presence of NAD+ and trypsin by fluorescence assay
[2] = molecular target: T1, NAD-dependent protein deacetylase sirtuin-3, mitochondrial (Homo sapiens) (UniProt Q9NTG7); test: Substrate activity at human N-terminal His-tagged SIRT3 (122 to 391 residues) expressed in Escherichia coli at 50 uM measured after 2 hrs in presence of NAD+ and trypsin by fluorescence assay
T1 sequence (whole entry): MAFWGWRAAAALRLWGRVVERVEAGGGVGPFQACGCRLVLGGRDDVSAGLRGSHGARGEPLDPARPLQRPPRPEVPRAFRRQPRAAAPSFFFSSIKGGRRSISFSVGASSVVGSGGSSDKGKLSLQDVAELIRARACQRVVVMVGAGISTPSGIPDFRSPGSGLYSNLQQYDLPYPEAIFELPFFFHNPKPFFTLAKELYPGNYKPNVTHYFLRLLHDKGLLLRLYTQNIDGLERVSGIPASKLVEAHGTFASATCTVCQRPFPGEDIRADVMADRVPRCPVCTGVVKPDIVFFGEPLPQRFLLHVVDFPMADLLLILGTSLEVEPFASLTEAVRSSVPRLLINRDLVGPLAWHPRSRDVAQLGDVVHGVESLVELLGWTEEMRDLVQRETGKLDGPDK

[3] = molecular target: T2, NAD-dependent protein deacetylase sirtuin-1 (Homo sapiens) (UniProt Q96EB6); test: Substrate activity at human N-terminal His-tagged SIRT1 (183 to 664 residues) expressed in Escherichia coli at 0.5 uM measured after 2 hrs in presence of NAD+ and trypsin by fluorescence assay
T2 sequence (whole entry): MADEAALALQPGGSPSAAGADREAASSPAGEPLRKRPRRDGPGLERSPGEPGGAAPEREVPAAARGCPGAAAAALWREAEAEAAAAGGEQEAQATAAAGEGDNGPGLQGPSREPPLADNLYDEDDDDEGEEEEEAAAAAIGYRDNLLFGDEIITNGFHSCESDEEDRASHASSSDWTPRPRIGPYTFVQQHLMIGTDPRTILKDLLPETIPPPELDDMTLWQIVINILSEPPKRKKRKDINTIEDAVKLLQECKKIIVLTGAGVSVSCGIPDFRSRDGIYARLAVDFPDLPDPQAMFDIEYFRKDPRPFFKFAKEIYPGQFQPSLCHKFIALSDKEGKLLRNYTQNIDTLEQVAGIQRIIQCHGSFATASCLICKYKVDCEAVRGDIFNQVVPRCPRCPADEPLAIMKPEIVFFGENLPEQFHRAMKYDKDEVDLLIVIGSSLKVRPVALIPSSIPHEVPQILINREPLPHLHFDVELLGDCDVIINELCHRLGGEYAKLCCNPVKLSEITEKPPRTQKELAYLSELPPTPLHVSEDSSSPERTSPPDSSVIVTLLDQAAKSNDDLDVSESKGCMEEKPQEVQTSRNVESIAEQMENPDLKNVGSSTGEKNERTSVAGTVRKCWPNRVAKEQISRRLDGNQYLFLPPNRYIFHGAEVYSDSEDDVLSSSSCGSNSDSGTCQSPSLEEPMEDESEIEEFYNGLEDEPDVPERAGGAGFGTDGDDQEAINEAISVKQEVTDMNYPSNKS

[4] = molecular target: T3, NAD-dependent protein deacetylase sirtuin-7 (Homo sapiens) (UniProt Q9NRC8); test: Substrate activity at human N-terminal His-tagged SIRT7 (68 to 354 residues) expressed in Escherichia coli at 0.5 uM measured after 2 hrs in presence of NAD+ and trypsin by fluorescence assay
T3 sequence (whole entry): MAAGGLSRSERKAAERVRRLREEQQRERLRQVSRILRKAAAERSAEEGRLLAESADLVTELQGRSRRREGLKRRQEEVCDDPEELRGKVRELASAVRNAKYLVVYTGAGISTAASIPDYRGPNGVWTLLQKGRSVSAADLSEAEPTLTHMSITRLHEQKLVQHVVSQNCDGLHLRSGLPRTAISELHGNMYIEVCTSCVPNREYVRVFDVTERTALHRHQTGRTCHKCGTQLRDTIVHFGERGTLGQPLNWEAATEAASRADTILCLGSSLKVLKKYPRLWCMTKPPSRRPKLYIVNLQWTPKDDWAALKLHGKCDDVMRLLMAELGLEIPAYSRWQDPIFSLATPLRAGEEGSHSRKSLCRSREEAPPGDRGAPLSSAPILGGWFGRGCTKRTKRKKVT

[5] = molecular target: T4, NAD-dependent protein deacetylase sirtuin-2 (Homo sapiens) (UniProt Q8IXJ6); test: Substrate activity at human N-terminal His-tagged SIRT2 (56 to 356 residues) expressed in Escherichia coli at 0.5 uM measured after 2 hrs in presence of NAD+ and trypsin by fluorescence assay
T4 sequence (whole entry): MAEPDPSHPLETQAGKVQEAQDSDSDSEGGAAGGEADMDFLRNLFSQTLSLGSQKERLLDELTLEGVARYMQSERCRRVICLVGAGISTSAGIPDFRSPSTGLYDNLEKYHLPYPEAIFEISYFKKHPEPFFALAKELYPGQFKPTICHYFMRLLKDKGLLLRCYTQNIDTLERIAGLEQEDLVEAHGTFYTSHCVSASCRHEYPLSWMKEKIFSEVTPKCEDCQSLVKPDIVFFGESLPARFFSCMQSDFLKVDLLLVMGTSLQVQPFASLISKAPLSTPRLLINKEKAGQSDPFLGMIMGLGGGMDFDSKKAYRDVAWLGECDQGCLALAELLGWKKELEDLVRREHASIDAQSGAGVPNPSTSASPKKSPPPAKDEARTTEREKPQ

[6] = molecular target: T4, NAD-dependent protein deacetylase sirtuin-2 (Homo sapiens); test: Substrate activity at human N-terminal His-tagged SIRT2 (56 to 356 residues) expressed in Escherichia coli at 5 uM measured after 2 hrs in presence of NAD+ and trypsin by fluorescence assay
[7] = molecular target: T3, NAD-dependent protein deacetylase sirtuin-7 (Homo sapiens); test: Substrate activity at human N-terminal His-tagged SIRT7 (68 to 354 residues) expressed in Escherichia coli at 50 uM measured after 2 hrs in presence of NAD+ and trypsin by fluorescence assay
[8] = molecular target: NAD-dependent protein deacylase sirtuin-6 (Homo sapiens) (UniProt Q8N6T7); test: Substrate activity at human N-terminal His-tagged SIRT6 (1 to 355 residues) expressed in Escherichia coli at 5 uM measured after 2 hrs in presence of NAD+ and trypsin by fluorescence assay
[9] = molecular target: T1, NAD-dependent protein deacetylase sirtuin-3, mitochondrial (Homo sapiens); test: Substrate activity at human N-terminal His-tagged SIRT3 (122 to 391 residues) expressed in Escherichia coli at 0.5 uM measured after 2 hrs in presence of NAD+ and trypsin by fluorescence assay
[10] = molecular target: T2, NAD-dependent protein deacetylase sirtuin-1 (Homo sapiens); test: Substrate activity at human N-terminal His-tagged SIRT1 (183 to 664 residues) expressed in Escherichia coli at 5 uM measured after 2 hrs in presence of NAD+ and trypsin by fluorescence assay
[11] = molecular target: T4, NAD-dependent protein deacetylase sirtuin-2 (Homo sapiens); test: Substrate activity at human N-terminal His-tagged SIRT2 (56 to 356 residues) expressed in Escherichia coli at 50 uM measured after 2 hrs in presence of NAD+ and trypsin by fluorescence assay
[12] = molecular target: NAD-dependent protein deacylase sirtuin-5, mitochondrial (Homo sapiens) (UniProt Q9NXA8); test: Substrate activity at human N-terminal His-tagged SIRT5 (34 to 302 residues) expressed in Escherichia coli at 5 uM measured after 2 hrs in presence of NAD+ and trypsin by fluorescence assay
[13] = molecular target: T2, NAD-dependent protein deacetylase sirtuin-1 (Homo sapiens); test: Substrate activity at human N-terminal His-tagged SIRT1 (183 to 664 residues) expressed in Escherichia coli at 50 uM measured after 2 hrs in presence of NAD+ and trypsin by fluorescence assay
[14] = molecular target: T3, NAD-dependent protein deacetylase sirtuin-7 (Homo sapiens); test: Substrate activity at human N-terminal His-tagged SIRT7 (68 to 354 residues) expressed in Escherichia coli at 5 uM measured after 2 hrs in presence of NAD+ and trypsin by fluorescence assay
[15] = molecular target: NAD-dependent protein deacylase sirtuin-6 (Homo sapiens) (UniProt Q8N6T7); test: Substrate activity at human N-terminal His-tagged SIRT6 (1 to 355 residues) expressed in Escherichia coli at 50 uM measured after 2 hrs in presence of NAD+ and trypsin by fluorescence assay
[16] = molecular target: NAD-dependent protein deacylase sirtuin-6 (Homo sapiens) (UniProt Q8N6T7); test: Substrate activity at human N-terminal His-tagged SIRT6 (1 to 355 residues) expressed in Escherichia coli at 0.5 uM measured after 2 hrs in presence of NAD+ and trypsin by fluorescence assay
[17] = molecular target: NAD-dependent protein deacylase sirtuin-5, mitochondrial (Homo sapiens) (UniProt Q9NXA8); test: Substrate activity at human N-terminal His-tagged SIRT5 (34 to 302 residues) expressed in Escherichia coli at 0.5 uM measured after 2 hrs in presence of NAD+ and trypsin by fluorescence assay
[18] = molecular target: T1, NAD-dependent protein deacetylase sirtuin-3, mitochondrial (Homo sapiens); test: Substrate activity at human N-terminal His-tagged SIRT3 (122 to 391 residues) expressed in Escherichia coli at 5 uM measured after 2 hrs in presence of NAD+ and trypsin by fluorescence assay

NAD-dependent protein deacylase sirtuin-5, mitochondrial (Homo sapiens), sequence (Q9NXA8 37-310 limits assumed): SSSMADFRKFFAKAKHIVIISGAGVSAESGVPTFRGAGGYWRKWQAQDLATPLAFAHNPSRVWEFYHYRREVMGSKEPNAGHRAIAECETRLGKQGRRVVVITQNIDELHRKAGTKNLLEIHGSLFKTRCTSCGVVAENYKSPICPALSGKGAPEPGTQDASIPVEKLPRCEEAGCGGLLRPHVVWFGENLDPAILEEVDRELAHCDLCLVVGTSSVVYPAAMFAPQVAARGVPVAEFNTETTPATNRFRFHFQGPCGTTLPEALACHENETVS
NAD-dependent protein deacylase sirtuin-6 (Homo sapiens), sequence (Q8N6T7 whole entry, the tested form may be a part): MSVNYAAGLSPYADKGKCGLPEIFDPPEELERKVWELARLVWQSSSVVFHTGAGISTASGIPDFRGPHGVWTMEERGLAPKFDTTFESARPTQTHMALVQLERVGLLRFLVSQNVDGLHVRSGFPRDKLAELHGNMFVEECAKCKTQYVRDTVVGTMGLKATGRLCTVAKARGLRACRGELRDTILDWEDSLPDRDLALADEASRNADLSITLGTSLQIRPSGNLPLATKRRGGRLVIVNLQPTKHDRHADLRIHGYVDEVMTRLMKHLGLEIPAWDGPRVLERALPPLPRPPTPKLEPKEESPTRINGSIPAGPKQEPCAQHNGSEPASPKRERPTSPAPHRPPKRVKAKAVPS

| Activity [1] [RFU] | Activity [2] [RFU] | Activity [3] [RFU] | Activity [4] [RFU] | Activity [5] [RFU] | Activity [6] [RFU] | Activity [7] [RFU] | Activity [8] [RFU] | Activity [9] [RFU] | Activity [10] [RFU] | Activity [11] [RFU] | Activity [12] [RFU] | Activity [13] [RFU] | Activity [14] [RFU] | Activity [15] [RFU] | Activity [16] [RFU] | Activity [17] [RFU] | Activity [18] [RFU] | Structure (SMILES) |
| --- | --- | --- | --- | --- | --- | --- | --- | --- | --- | --- | --- | --- | --- | --- | --- | --- | --- | --- |
| 0.7 | 0.88 | 0.2 | 0.39 | 0.2 | 0.22 | 0.43 | 0.34 | 0.31 | 0.33 | 0.48 | 0.27 | 0.97 | 0.28 | 0.43 | 0.35 | 0.26 | 0.38 | CC(=O)NCCCC[C@H](NC(=O)[C@H](CCCNC(=N)N)NC(=O)[C@H](C)NC(=O)[C@@H](NC(C)=O)[C@@H](C)O)C(=O)Nc1ccc2c(C)cc(=O)oc2c1 (Ac-TARK(Ac)-{AMC}) |
| 1.29 | 9.82 | 0.52 | 0.31 | 0.52 | 3.84 | 0.97 | 0.39 | 0.54 | 6.39 | 25.2 | 0.31 | 33 | 1.09 | 0.97 | 0.5 | 0.24 | 2.28 | CC(=O)NCCCC[C@H](NC(=O)[C@H](CC(C)C)NC(=O)[C@H](CCCCN)NC(=O)[C@H](Cc1ccc(O)cc1)NC(C)=O)C(=O)Nc1ccc2c(C)cc(=O)oc2c1 (Ac-YKLK(Ac)-{AMC}) |
| 0.78 | 0.85 | 1.68 | 0.6 | 1.68 | 1.72 | 1.09 | 0.74 | 0.51 | 0.74 | 3.19 | 0.24 | 1.1 | 0.44 | 1.09 | 0.46 | 0.28 | 0.73 | CCCCCCCCCC(=O)NCCCC[C@H](NC(=O)[C@H](CCC(N)=O)NC(=O)[C@@H](NC(=O)[C@H](CCCCN)NC(C)=O)C(C)C)C(=O)Nc1ccc2c(C)cc(=O)oc2c1 (Ac-KVQK(Decanoyl)-{AMC}) |

Second part, the compound before the results:

| Structure (SMILES) | Activity [1] [RFU] | Activity [2] [RFU] | Activity [3] [RFU] | Activity [4] [RFU] | Activity [5] [RFU] | Activity [6] [RFU] | Activity [7] [RFU] | Activity [8] [RFU] | Activity [9] [RFU] | Activity [10] [RFU] | Activity [11] [RFU] | Activity [12] [RFU] | Activity [13] [RFU] | Activity [14] [RFU] | Activity [15] [RFU] | Activity [16] [RFU] | Activity [17] [RFU] | Activity [18] [RFU] |
| --- | --- | --- | --- | --- | --- | --- | --- | --- | --- | --- | --- | --- | --- | --- | --- | --- | --- | --- |
| CCCCCCCCCC(=O)NCCCC[C@H](NC(=O)[C@H](CCCCN)NC(=O)[C@@H]1CCCN1C(=O)[C@H](CC(N)=O)NC(C)=O)C(=O)Nc1ccc2c(C)cc(=O)oc2c1 (Ac-NPKK(Decanoyl)-{AMC}) | 1.99 | 3.19 | 0.29 | 0.29 | 0.29 | 1.18 | 1.32 | 0.42 | 0.51 | 0.76 | 5.3 | 0.34 | 2.87 | 0.49 | 1.32 | 0.39 | 0.31 | 0.79 |
| CC(=O)NCCCC[C@H](NC(=O)[C@H](CO)NC(=O)[C@H](Cc1ccccc1)NC(=O)[C@H](CC(=O)O)NC(C)=O)C(=O)Nc1ccc2c(C)cc(=O)oc2c1 (Ac-DFSK(Ac)-{AMC}) | 0.81 | 7.07 | 0.31 | 0.39 | 0.31 | 1.13 | 0.58 | 0.36 | 0.32 | 3.38 | 6.75 | 0.29 | 21.2 | 0.65 | 0.58 | 0.48 | 0.26 | 1.29 |
| CC[C@H](C)[C@H](NC(C)=O)C(=O)N[C@@H](CCCNC(=N)N)C(=O)N[C@H](C(=O)N[C@@H](CCCCNC(=O)CCC(=O)O)C(=O)Nc1ccc2c(C)cc(=O)oc2c1)[C@@H](C)CC (Ac-IRIK(Suc)-{AMC}) | 2.63 | 2.47 | 0.21 | 0.29 | 0.21 | 0.33 | 1.89 | 0.44 | 0.49 | 0.55 | 1.03 | 0.82 | 2.05 | 0.34 | 1.89 | 0.4 | 0.32 | 0.64 |
